Molecules are shown by their SMILES. Where a name gives a salt, the structure may show the parent alone. Where only a bound is given, the exact number is not on record here.

The target in this test is human factor IXa (Homo sapiens (Human), UniProt P00740). Kind of test: Determination of inhibitory activity against factor IXa (fluorogenic substrate SPECTROFLUOR FIXa). The format is biochemical. Conditions: Factor IXa enzyme assay human. The protocol:
Inhibitory activity against factor IXa was tested using the substrate SPECTROFLUOR FIXa (american diagnostica inc.; 500 West Avenue, Stamford, Conn. 06902 USA; Pr. No. 299F) and human factor IXa (american diagnostica inc.; Pr. No. 449b). Test substances were dissolved in buffer A (50 mM α,α,α-tris (hydroxymethyl) methylamine (Tris), 100 mM NaCl, 5 mM CaCl2, 15% (v/v) ethylene glycol, pH 8.0) were mixed with factor IXa (0.1 μg/ml final concentration). The enzyme reaction was started by addition of SPECTROFLUOR FIXa (100 μM final concentration). After incubation for 60 minutes at room temperature, the reaction was stopped by the addition of 20% (v/v) acetic acid solution, and then the fluorescence value was measured (Excitation Wavelength: 355 nm, Emission Wavelength; 460 nm) in a microtiter plate reader (ARVO 1420 Multilabel Counter; PerkinElmer).
The IC50 was calculated from a dilution series of the test substance with the aid of the software, Symyx Assay Explorer (Symyx Technologies, Inc.).

Chain of human factor IXa (P00740 227-461): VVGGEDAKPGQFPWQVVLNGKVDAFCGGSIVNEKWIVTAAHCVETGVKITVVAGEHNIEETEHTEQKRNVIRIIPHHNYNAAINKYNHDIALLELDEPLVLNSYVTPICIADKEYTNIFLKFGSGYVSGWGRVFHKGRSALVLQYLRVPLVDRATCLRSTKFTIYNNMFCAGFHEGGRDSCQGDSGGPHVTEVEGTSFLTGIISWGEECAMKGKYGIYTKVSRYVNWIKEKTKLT
Chain of human factor IXa (P00740 47-191 partner): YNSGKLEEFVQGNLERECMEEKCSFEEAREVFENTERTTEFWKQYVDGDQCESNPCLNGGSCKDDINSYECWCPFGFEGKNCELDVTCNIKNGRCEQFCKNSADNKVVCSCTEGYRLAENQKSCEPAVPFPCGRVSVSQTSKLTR

`Nc1noc2c(N3C[C@@H]4CC[C@H]3[C@@H]4NC(=O)c3ccc(-c4ccnnc4)cc3Cl)ncc(Cl)c12` (relative stereo) [Example 12, N-((1S*,4S*,7R*)-2-(3-Amino-4-chloroisoxazolo[5,4-c]pyridin-7-yl)-2-azabicyclo[2.2.1]heptan-7-yl)-2-chloro-4-(pyridazin-4-yl)benzamide] showed an IC50 of at most 100 nM. `Cc1ncn(-c2ccc(C(=O)NC3C4CCC3N(c3ncc(Cl)c5c(N)noc35)C4)c(Cl)c2)n1` (single isomer, unassigned) [Example 7.1, N-((1S*,4S*,7R*)-2-(3-Amino-4-chloroisoxazolo[5,4-c]pyridin-7-yl)-2-azabicyclo[2.2.1]heptan-7-yl)-2-chloro-4-(3-methyl-1H-1,2,4-triazol-1-yl)benzamide] returned an IC50 of at most 100 nM. The same measure for `Cc1cc2c(N)noc2c(N2C[C@@H]3CC[C@H]2[C@@H]3NC(=O)c2ccc(-c3cnc(=O)n(C)c3)cc2Cl)n1` (relative stereo) [Example 27, N-((1S*,4S*,7R*)-2-(3-Amino-5-methylisoxazolo[5,4-c]pyridin-7-yl)-2-azabicyclo[2.2.1]heptan-7-yl)-2-chloro-4-(1-methyl-2-oxo-1,2-dihydropyrimidin-5-yl)benzamide TFA salt]: at most 100 nM.

With `Cc1cc2c(N)noc2c(N2CC3CCC2C3NC(=O)c2ccc(-n3cnc(C)n3)cc2Cl)n1` (single isomer, unassigned) [Example 11.1, N-((1S*,4S*,7R*)-2-(3-Amino-5-methylisoxazolo[5,4-c]pyridin-7-yl)-2-azabicyclo[2.2.1]heptan-7-yl)-2-chloro-4-(3-methyl-1H-1,2,4-triazol-1-yl)benzamide], the concentration for half-maximal inhibition (IC50) lay in the range of 100 to 1000 nM.

`Cc1ncn(-c2ccc(C(=O)N[C@@H]3[C@H]4CC[C@@H]3N(c3cc(Cl)cc5c(N)noc35)C4)c(Cl)c2)n1` (relative stereo) [Example 4, N-((1S*,4S*,7R*)-2-(3-Amino-5-chlorobenzo[d]isoxazol-7-yl)-2-azabicyclo[2.2.1]heptan-7-yl)-2-chloro-4-(3-methyl-1H-1,2,4-triazol-1-yl)benzamide] displayed an IC50 of at most 100 nM. The same measure for `Nc1noc2c(N3CC4CCC3C4NC(=O)c3ccc(-n4cncn4)cc3Cl)ncc(Cl)c12` (single isomer, unassigned) [Example 8.2, N-((1S*,4S*,7R*)-2-(3-Amino-4-chloroisoxazolo[5,4-c]pyridin-7-yl)-2-azabicyclo[2.2.1]heptan-7-yl)-2-chloro-4-(1H-1,2,4-triazol-1-yl)benzamide]: 100 to 1000 nM; for `Nc1noc2c(N3CC4CCC3C4NC(=O)c3ccc(-n4cncn4)cc3Cl)ncc(Cl)c12` (single isomer, unassigned) [Example 8.1, N-((1S*,4S*,7R*)-2-(3-Amino-4-chloroisoxazolo[5,4-c]pyridin-7-yl)-2-azabicyclo[2.2.1]heptan-7-yl)-2-chloro-4-(1H-1,2,4-triazol-1-yl)benzamide]: at most 100 nM. The same measure for `Nc1noc2c(N3C[C@@H]4CC[C@H]3[C@@H]4NC(=O)c3ccc(-c4ccc5nncn5c4)cc3Cl)ncc(Cl)c12` (relative stereo) [Example 20, 4-([1,2,4]Triazolo[4,3-a]pyridin-6-yl)-N-((1S*,4S*,7R*)-2-(3-amino-4-chloroisoxazolo[5,4-c]pyridin-7-yl)-2-azabicyclo[2.2.1]heptan-7-yl)-2-chlorobenzamide]: at most 100 nM; for `Nc1noc2c(N3C[C@@H]4CC[C@H]3[C@@H]4NC(=O)c3ccc(-c4cncnc4)cc3Cl)ncc(Cl)c12` (relative stereo) [Example 9, N-((1S*,4S*,7R*)-2-(3-Amino-4-chloroisoxazolo[5,4-c]pyridin-7-yl)-2-azabicyclo[2.2.1]heptan-7-yl)-2-chloro-4-(pyrimidin-5-yl)benzamide]: at most 100 nM.

Source of the values: patent US9808445B2, “Factor IXa inhibitors” (Merck Sharp & Dohme Corp., priority 2014, dated 2017).
